Like-named read-outs stand apart in the source and are kept apart here. Bounds are passed on as bounds.

Our source for the IC50 and GI50 values is patent publication US20230219979A1, “PYRAZOLO[1,5-a]PYRIDINE COMPOUND, PREPARATION METHOD THEREFOR AND USE THEREOF” (SHENZHEN ZHONGGE BIOLOGICAL TECHNOLOGY CO., LTD., priority 2019, published 2023).

The target of one assay is Wild-type RET kinase (Homo sapiens, UniProt P07949). In words: HTRF method for testing the inhibitory activity of compounds against RET. In kind it is biochemical. For orientation: TR-FRET usually uses a lanthanide donor and a delayed reading to cut background.
Sequence of Wild-type RET kinase (P07949 29-1114): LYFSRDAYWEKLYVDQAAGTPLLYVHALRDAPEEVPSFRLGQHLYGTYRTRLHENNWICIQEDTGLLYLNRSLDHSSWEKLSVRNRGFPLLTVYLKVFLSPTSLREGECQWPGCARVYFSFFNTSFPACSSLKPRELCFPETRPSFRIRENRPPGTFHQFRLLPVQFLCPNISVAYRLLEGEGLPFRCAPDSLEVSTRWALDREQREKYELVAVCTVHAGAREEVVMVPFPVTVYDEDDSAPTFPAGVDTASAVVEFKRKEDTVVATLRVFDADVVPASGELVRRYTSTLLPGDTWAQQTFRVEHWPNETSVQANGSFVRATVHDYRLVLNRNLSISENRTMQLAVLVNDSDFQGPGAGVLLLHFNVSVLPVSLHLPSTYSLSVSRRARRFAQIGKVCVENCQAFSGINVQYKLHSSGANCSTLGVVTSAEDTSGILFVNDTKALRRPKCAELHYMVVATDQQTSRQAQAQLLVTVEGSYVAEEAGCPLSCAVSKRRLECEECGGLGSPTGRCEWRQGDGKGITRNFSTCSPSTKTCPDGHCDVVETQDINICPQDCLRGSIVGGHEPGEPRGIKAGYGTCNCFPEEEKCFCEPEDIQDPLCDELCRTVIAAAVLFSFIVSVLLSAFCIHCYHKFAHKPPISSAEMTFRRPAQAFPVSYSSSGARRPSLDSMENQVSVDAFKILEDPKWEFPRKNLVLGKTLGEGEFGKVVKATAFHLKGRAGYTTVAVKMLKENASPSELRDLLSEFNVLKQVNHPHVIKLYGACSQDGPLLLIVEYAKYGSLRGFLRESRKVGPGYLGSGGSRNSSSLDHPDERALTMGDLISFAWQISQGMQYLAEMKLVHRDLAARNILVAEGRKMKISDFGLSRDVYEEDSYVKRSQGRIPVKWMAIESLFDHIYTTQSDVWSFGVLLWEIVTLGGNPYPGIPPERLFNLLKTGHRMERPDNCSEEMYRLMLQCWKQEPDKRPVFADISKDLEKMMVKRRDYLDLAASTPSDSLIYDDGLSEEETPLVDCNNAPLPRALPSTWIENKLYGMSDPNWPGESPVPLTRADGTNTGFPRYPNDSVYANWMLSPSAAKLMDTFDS
In the next assay the target is VEGFR2 kinase (Homo sapiens, UniProt P35968). In words: HTRF method for testing the inhibitory activity of compounds against VEGFR2. The assay is classed as biochemical.
Sequence of VEGFR2 kinase (P35968 20-1356): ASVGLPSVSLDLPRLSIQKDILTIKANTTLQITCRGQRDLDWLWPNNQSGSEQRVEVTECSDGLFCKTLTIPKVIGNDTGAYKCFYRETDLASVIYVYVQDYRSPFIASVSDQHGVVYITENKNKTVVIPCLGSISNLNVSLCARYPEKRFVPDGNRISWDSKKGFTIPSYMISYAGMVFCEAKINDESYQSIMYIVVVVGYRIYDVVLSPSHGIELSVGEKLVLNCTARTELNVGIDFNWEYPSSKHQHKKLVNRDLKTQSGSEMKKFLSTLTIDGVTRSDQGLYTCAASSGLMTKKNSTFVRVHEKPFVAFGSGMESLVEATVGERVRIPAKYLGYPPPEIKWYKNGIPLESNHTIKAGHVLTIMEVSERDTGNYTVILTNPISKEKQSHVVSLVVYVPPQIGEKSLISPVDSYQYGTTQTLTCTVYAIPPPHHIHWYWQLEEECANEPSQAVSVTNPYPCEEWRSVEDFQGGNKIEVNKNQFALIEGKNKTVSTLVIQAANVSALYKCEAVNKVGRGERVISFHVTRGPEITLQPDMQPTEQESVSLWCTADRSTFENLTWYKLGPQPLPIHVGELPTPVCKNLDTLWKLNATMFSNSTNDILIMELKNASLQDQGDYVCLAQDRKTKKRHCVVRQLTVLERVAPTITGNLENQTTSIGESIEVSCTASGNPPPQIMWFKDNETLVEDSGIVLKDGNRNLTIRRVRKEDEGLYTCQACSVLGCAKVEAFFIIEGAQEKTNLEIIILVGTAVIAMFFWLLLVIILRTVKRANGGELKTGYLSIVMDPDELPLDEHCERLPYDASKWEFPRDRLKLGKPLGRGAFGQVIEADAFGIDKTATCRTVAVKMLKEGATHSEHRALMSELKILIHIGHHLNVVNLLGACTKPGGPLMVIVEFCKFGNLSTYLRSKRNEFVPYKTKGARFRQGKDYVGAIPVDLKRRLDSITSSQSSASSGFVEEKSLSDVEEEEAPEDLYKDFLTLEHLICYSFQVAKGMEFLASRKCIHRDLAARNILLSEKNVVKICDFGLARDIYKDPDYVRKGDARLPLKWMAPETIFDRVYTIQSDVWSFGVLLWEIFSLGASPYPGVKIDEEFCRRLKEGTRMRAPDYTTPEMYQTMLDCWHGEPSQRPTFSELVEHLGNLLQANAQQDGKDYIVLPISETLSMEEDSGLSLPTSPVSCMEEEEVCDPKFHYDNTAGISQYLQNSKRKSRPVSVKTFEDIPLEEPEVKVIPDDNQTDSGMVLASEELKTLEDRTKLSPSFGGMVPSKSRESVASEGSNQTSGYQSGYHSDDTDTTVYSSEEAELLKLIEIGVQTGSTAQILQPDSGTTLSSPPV
A further assay deals with T1, Ba/F3-KIF5B-RET cell (Homo sapiens, UniProt P07949).
T1 construct: fused on or other part: P33176 (Kinesin-1 heavy chain)
T1 sequence (P07949 whole entry, change not shown, the tested form may be a part): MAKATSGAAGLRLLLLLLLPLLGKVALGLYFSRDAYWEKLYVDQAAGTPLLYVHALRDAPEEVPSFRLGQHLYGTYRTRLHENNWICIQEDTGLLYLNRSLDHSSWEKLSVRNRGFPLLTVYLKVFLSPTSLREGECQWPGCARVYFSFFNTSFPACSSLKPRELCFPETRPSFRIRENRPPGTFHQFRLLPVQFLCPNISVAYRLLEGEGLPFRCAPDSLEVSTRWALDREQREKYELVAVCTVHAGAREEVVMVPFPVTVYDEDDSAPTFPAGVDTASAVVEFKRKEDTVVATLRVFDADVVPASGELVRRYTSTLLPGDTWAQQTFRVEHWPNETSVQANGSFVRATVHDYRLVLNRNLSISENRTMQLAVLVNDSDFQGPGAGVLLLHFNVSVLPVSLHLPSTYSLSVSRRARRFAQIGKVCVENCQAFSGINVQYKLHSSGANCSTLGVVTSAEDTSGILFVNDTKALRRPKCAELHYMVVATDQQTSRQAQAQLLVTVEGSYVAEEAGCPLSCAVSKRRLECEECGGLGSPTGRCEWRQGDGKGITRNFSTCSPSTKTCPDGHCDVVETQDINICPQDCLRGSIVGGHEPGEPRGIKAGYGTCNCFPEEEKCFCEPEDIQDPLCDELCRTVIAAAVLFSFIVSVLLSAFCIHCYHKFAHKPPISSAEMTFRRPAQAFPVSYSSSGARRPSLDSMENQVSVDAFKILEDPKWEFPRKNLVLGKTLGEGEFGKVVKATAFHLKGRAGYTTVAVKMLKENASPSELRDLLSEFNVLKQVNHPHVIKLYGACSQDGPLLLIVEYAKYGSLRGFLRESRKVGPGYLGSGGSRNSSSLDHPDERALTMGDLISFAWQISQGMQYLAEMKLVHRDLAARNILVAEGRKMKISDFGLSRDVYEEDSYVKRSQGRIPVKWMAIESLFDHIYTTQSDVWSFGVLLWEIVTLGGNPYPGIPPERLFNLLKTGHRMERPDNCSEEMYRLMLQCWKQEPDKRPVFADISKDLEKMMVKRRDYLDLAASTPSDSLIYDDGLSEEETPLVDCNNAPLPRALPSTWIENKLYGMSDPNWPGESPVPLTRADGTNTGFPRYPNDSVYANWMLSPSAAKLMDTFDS
The experiment in a line: CellTiter-Glo luminescence assay, inhibitory activity against Ba/F3-KIF5B-RET cell. In kind it is cell-based. The source says:
(C) In Vitro Screening Experiment - CellTiter-Glo Luminescence Assay for Testing The inhibitory activity of compounds against Ba/F3-KIF5B-RET cell
• 1. The mammalian cell expression vector containing human KIF5B-RET cDNA was introduced into Ba/F3 cells using the Neon® transfection system method, and the surviving clones screened by puromycin were subjected to cell growth inhibitory function experiments and Western blotting to verify cell lines with stable and high expression of RET. • 2. Cells were cultured in RPMI 1640 medium containing 10% fetal bovine serum, 1% penicillin-streptomycin, and 2 µg/mL puromycin, and then placed in a 37° C., 5% carbon dioxide cell incubator. • 3. The test compound (5 mM stock) was diluted 2.5 folds to […] with 100% dimethyl sulfoxide; and the compound was diluted into 10 concentrations at an equal ratio of 1:3 in a 384-well dilution plate. • 4. 0.2 µL of the serially diluted compound was added to a 384-well cell culture plate (Corning, 3570) using an Echo 550 pipetting system, 2 replicate wells for each concentration, and the final concentration of dimethyl sulfoxide was 0.5% (v/v). The gradient concentrations of the test compound were 5000, 1666.7, 555.5, 185.18, 61.72, 20.57, 6.858, 2.286, 0.764, 0.254 nM. • 5. 40 µL of Ba/F3-KIF5B-RET cell suspension containing 800 cells was added to each well, and incubated for 72 h in a 5% CO2 cell incubator. • 6. 20 µL of Cell Titer-Glo reagent was added to each well of the cell culture plate, and the culture system was then shaken and mixed thoroughly for 2 min to lyse the cells, the cells were then incubated at room temperature for 30 min, and the […] signal values were then read with an Envision 2104 microplate reader. • 7. By fitting the data with XLFit 5.0 based on the parameters formula, the IC50 value was calculated as: • [formula]
Background: ATP-based viability assays read luminescence as a measure of living cells.

[1] abbreviates: HTRF, read-out: Wild-type RET kinase.
The mark [2] stands for this setting: 72 h, read-out: Ba/F3-KIF5B-RET cell activity.
Setting [3] is: read-out: Ba/F3-KIF5B-RET cell activity, 72 h.

In the case of `COc1ccc(CN2CCN(c3ccc(-c4cc(-c5cnn(C)c5)cn5ncc(C(N)=O)c45)cn3)CC2)cn1` [Compound 8, 4-(6-(4-((6-methoxypyridin-3-yl)methyl)piperazin-1-yl)pyridin-3-yl)-6-(1-methyl-1H-pyrazol-4-yl)pyrazolo[1,5-a]pyridine-3-carboxamide], the values for the IC50 at Wild-type RET kinase (setting [1]) and at VEGFR2 kinase were 250 nM and no less than 5000 nM, respectively.
`COc1ccc(CN2C3CC2CN(c2cnc(-c4cc(OCCN5CCC6(CCNC6)CC5)cn5ncc(C#N)c45)cn2)C3)cn1` [Compound 21]: the IC50 at Wild-type RET kinase (setting [1]) was 0.72 nM. In addition, the GI50 on Ba/F3-KIF5B-RET cell (setting [2]) was determined as 192 nM.
With `COc1ccc(CN2C3CC2CN(c2cnc(-c4cc(OCCN5CC6CC(C5)N6)cn5ncc(C#N)c45)cn2)C3)cn1` [Compound 22, 6-(2-(3,6-diazabicyclo[3.1.1]heptan-3-yl)ethoxy)-4-(5-(6-((6-methoxypyridine-3-yl)methyl)-3,6-diazabicyclo[3.1.1]heptan-3-yl)pyrazin-2-yl)pyrazolo[1,5-a]pyridine-3-carbonitrile], the IC50 on Wild-type RET kinase (setting [1]) was 1.24 nM. Moreover, the GI50 at Ba/F3-KIF5B-RET cell (setting [2]) was found to be 151 nM.
Regarding `COc1ccc(CN2C3CC2CN(c2cnc(-c4cc(OCCN5CCCC56CNC6)cn5ncc(C#N)c45)cn2)C3)cn1` [Compound 23, 6-(2-(2,5-diazaspiro[3.4]octan-5-yl)ethoxy)-4-(5-(6-((6-methoxypyridin-3-yl)methyl)-3,6-diazabicyclo[3.1.1]heptan-3-yl)pyrazin-2-yl)pyrazolo[1,5-a]pyridine-3-carbonitrile], the IC50 on Wild-type RET kinase (setting [1]) was determined as 1.35 nM. Besides, the GI50 on Ba/F3-KIF5B-RET cell (setting [2]) is 1130 nM.
On to `COc1ccc(CN2C3CC2CN(c2cnc(-c4cc(OCCN5CCC6(CCCCC6)CC5)cn5ncc(C#N)c45)cn2)C3)cn1` [Compound 24, 6-(2-(3-azaspiro[5.5]undecane-3-yl)ethoxy)-4-(5-(6-((6-methoxypyridin-3-yl)methyl)-3,6diazabicyclo[3.1.1]heptan-3-yl)pyrazin-2-yl)pyrazolo[1,5-a]pyridine-3-carbonitrile], for which the IC50 at Wild-type RET kinase (setting [1]) turned out to be 2.19 nM. Also, the GI50 at Ba/F3-KIF5B-RET cell (setting [2]) is 21.3 nM.
In the case of `COc1ccc(CN2C3CC2CN(c2cnc(-c4cc(OCCN5CCC6(CCCO6)CC5)cn5ncc(C#N)c45)cn2)C3)cn1` [Compound 25, 6-(2-(1-oxa-8-azaspiro[4.5]dec-8-yl)ethoxy)-4-(5-(6-((6-methoxypyridin-3-yl)methyl)-3,6-diazabicyclo[3.1.1]heptan-3-yl)pyrazin-2-yl)pyrazolo[1,5-a]pyridine-3-carbonitrile], the IC50 on Wild-type RET kinase (setting [1]) worked out at 2.89 nM. In addition, the GI50 at Ba/F3-KIF5B-RET cell (setting [2]) was 27.7 nM.
For `COc1ccc(CN2C3CC2CN(c2cnc(-c4cc(OC(=O)N5CCN(C)CC5)cn5ncc(C#N)c45)cn2)C3)cn1` [Compound 26, 3-cyano-4-(5-(6-((6-methoxypyridin-3-yl)methyl)-3,6-diazabicyclo[3.1.1]heptan-3-yl)pyrazin)pyrazolo[1,5-a]pyridin-6-yl 4-methylpiperazine-1-carboxylate], the IC50 on Wild-type RET kinase turned out to be 12.7 nM. In addition, the GI50 on Ba/F3-KIF5B-RET cell (setting [3]) was found to be 64.2 nM.
The compound `COc1ccc(CN2C3CC2CN(c2cnc(-c4cc(OC(=O)N5CCOCC5)cn5ncc(C#N)c45)cn2)C3)cn1` [Compound 27, 3-cyano-4-(5-(6-((6-methoxypyridin-3-yl)methyl)-3,6-diazabicyclo[3.1.1]heptan-3-yl)pyrazin-2-yl]pyrazolo[1,5-a]pyridin-6-ylmorpholine-4-carboxylate] had an IC50 against Wild-type RET kinase of 15.7 nM. Also, on Ba/F3-KIF5B-RET cell (setting [3]), the GI50 was 51.7 nM.
Consider `COc1ccc(CN2C3CC2CN(c2cnc(-c4cc(NCc5ccccn5)cn5ncc(C#N)c45)cn2)C3)cn1` [Compound 28, 4-(5-(6-((6-methoxypyridin-3-yl)methyl)-3,6-diazabicyclo[3.1.1]heptan-3-yl)pyrazin-2-yl)-6-((pyridin-2-ylmethyl)amino)pyrazolo[1,5-a]pyridine-3-carbonitrile], for which, on Wild-type RET kinase (setting [1]), the IC50 was 1.3 nM. For the same compound, at Ba/F3-KIF5B-RET cell (setting [2]), the GI50 was 12.6 nM.
For `COc1ccc(CN2C3CC2CN(c2cnc(-c4cc(OCCN5CCC6(CC5)COC6)cn5ncc(C#N)c45)cn2)C3)cn1` [Compound 30, 6-(2-(2-oxa-7-azaspiro[3.5]non-7-yl)ethoxy)-4-(5-(6-((6-methoxypyridin-3-yl)methyl)-3,6-diazabicyclo[3.1.1]heptan-3-yl)pyrazin-2-yl)pyrazolo[1,5-a]pyridine-3-carbonitrile], the IC50 on Wild-type RET kinase (setting [1]) was 3.98 nM. The GI50 at Ba/F3-KIF5B-RET cell (setting [2]) was 63.4 nM.
Turning to `COc1ccc(CN2C3CC2CN(c2cnc(-c4cc(OCCN5C6CCC5COC6)cn5ncc(C#N)c45)cn2)C3)cn1` [Compound 31, 6-(2-(3-oxa-8-azabicyclo[3.2.1]oct-8-yl)ethoxy)-4-(5-(6-((6-methoxypyridine-3-yl)methyl)-3,6diazabicyclo[3.1.1]heptan-3-yl)pyrazin-2-yl)pyrazolo[1,5-a]pyridine-3-carbonitrile], the IC50 at Wild-type RET kinase (setting [1]) turned out to be 1.4 nM. Besides, the GI50 on Ba/F3-KIF5B-RET cell (setting [2]) worked out at 5.1 nM.
For `COc1ccc(CN2C3CC2CN(c2cnc(-c4cc(OCCN5CCC6(CC5)CC(=O)N6)cn5ncc(C#N)c45)cn2)C3)cn1` [Compound 32, 4-(5-(6-((6-methoxypyridin-3-yl)methyl)-3,6-diazabicyclo[3.1.1]heptan-3-yl)pyrazin-2-yl)-6-(2-(2-oxo-1,7-diazaspiro[3.5]non-7-yl)ethoxy)pyrazolo[1,5-a]pyridine-3-carbonitrile] the same measures were 4.14 nM and 83.3 nM.
Consider `COc1ccc(CN2C3CC2CN(c2cnc(-c4cc(OCCN5CC6(CCCOC6)C5)cn5ncc(C#N)c45)cn2)C3)cn1` [Compound 33, 6-(2-(6-oxa-2-azaspiro[3.5]non-2-yl)ethoxy)-4-(5-(6-((6-methoxypyridin-3-yl)methyl)-3,6-diazabicyclo[3.1.1]heptan-3-yl)pyrazin-2-yl)pyrazolo[1,5-a]pyridine-3-carbonitrile], for which the IC50 at Wild-type RET kinase (setting [1]) was 5.73 nM. In addition, the GI50 on Ba/F3-KIF5B-RET cell (setting [2]) came to 26 nM.
For `COc1ccc(CN2C3CC2CN(c2cnc(-c4cc(OCCN5CC6(CCCO6)C5)cn5ncc(C#N)c45)cn2)C3)cn1` [Compound 34, 6-(2-(5-oxa-2-azaspiro[3.4]oct-2-yl)ethoxy)-4-(5-(6-((6-methoxypyridin-3-yl)methyl)-3,6-diazabicyclo[3.1.1]heptan-3-yl)pyrazin-2-yl)pyrazolo[1,5-a]pyridine-3-carbonitrile] the same measures were 2.04 nM and 13.8 nM.
Consider `COc1ccc(CN2C3CC2CN(c2cnc(-c4cc(OCCN5CCC6(CCCNC6=O)CC5)cn5ncc(C#N)c45)cn2)C3)cn1` [Compound 35, 4-(5-(6-((6-methoxypyridin-3-yl)methyl)-3,6-diazabicyclo[3.1.1]heptan-3-yl)pyrazin-2-yl)-6-(2-(-1-oxo-2,9-diazaspiro[5.5]undecan-9-yl)ethoxy)pyrazolo[1,5-a]pyridine-3-carbonitrile], for which the IC50 on Wild-type RET kinase (setting [1]) stood at 3.08 nM. The GI50 at Ba/F3-KIF5B-RET cell (setting [2]) was 81.5 nM.
Regarding `COc1ccc(CN2C3CC2CN(c2cnc(-c4cc(OCCN5CCC6(CCOCC6)CC5)cn5ncc(C#N)c45)cn2)C3)cn1` [Compound 37, 6-(2-(3-oxa-9-azaspiro[5.5]undec-9-yl)ethoxy)-4-(5-(6-((6-methoxypyridin-3-yl)methyl)-3,6-diazabicyclo[3.1.1]heptan-3-yl)pyrazin-2-yl)pyrazolo[1,5-a]pyridine-3-carbonitrile], the IC50 on Wild-type RET kinase (setting [1]) worked out at 5.7 nM; at VEGFR2 kinase, 801 nM.
On Wild-type RET kinase, `COc1ccc(CN2C3CC2CN(c2cnc(-c4cc(OC(=O)NC(C)C)cn5ncc(C#N)c45)cn2)C3)cn1` [Compound 41, 3-cyano-4-(5-(6-((6-methoxypyridin-3-yl)methyl)-3,6-diazabicyclo[3.1.1]heptan-3-yl)pyrazin-2-yl)pyrazolo[1,5-a]pyridin-6-ylisopropylcarbamate] displayed an IC50 of 6.2 nM. Further, the GI50 at Ba/F3-KIF5B-RET cell (setting [3]) was determined as 266 nM.
As to `COc1ccc(CN2C3CC2CN(c2ccc(-c4cc(NCCO)cn5ncc(C#N)c45)cn2)C3)cn1` [Compound 51, 6-((2-hydroxyethyl)amino)-4-(6-(6-((6-methoxypyridin-3-yl)methyl)-3,6-diazabicyclo[3.1.1]hept-3-yl)pyridin-3-yl)pyrazolo[1,5-a]pyridine-3-carbonitrile], the IC50 on Wild-type RET kinase (setting [1]) came out at 0.22 nM; against VEGFR2 kinase, 19.3 nM.
For “ethyl 4(6-(4-(6-methoxypyridin-3-yl)piperazin-1-yl)pyridin-3-yl)-6-(1-methyl-1H-pyrazol-4-yl)H-pyrazolo[1,5-a]pyridine-3-carboxylate [Compound 1]”, the IC50 on Wild-type RET kinase (setting [1]) stood at 3.1 nM. For the same compound, the GI50 at Ba/F3-KIF5B-RET cell (setting [2]) was 271 nM.
